Structures are written as SMILES.

The term IC50 denotes the concentration that gives 50% inhibition.

For the assay, the target named is T1, mTOR (Homo sapiens, UniProt P42345).
T1 construct: purchased Invitrogen PR8683A
T1 sequence (P42345 1360-2549 limits assumed): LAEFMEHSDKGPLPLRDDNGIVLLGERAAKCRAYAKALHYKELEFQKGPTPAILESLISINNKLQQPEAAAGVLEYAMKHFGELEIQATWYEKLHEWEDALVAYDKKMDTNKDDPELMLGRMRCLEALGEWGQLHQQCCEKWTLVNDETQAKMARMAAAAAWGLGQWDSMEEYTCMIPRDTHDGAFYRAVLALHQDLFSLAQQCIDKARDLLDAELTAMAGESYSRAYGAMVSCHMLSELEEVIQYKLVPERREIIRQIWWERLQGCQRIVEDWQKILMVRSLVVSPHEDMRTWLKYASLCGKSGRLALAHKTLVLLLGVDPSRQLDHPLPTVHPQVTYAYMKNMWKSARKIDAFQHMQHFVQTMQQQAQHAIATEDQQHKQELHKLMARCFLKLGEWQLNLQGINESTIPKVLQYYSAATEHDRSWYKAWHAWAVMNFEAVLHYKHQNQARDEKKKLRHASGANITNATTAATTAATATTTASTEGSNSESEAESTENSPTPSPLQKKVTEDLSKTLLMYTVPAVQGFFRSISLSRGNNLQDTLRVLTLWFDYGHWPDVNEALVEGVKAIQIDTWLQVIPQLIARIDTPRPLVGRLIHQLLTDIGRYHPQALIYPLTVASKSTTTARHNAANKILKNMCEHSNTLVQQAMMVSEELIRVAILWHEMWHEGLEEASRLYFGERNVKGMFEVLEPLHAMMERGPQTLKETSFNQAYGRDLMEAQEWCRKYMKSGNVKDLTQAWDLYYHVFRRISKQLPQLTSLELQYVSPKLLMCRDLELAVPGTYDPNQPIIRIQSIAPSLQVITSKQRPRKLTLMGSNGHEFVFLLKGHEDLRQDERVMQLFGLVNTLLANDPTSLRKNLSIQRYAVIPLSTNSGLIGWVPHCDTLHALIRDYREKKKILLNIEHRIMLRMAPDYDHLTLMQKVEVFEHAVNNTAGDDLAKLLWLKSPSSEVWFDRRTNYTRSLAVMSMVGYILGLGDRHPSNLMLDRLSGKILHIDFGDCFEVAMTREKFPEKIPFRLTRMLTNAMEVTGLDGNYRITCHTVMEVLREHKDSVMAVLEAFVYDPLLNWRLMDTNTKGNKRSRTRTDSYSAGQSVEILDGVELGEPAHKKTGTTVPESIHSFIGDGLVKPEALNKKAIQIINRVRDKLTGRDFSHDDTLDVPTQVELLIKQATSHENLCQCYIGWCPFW
Nature of the assay: mTOR HTR-FRET assay. The assay is classed as biochemical. To be noted: read-out: Act. Level (IC50 in mTor HTR-FRET assay). An outline of the steps: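 Test compounds, taken from 10 mM DMSO stocks and diluted, were mixed with mTOR enzyme (0.200 μg/mL) in Tris buffer pH 7.4 with 100 mM NaCl, 0.1% Tween-20 and 1 mM DTT. ATP/substrate addition initiated the reaction, alongside compound-free controls.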
As for `Cc1nc(-c2nnc[nH]2)ccc1-c1cnc2c(n1)N(C)C(=O)CN2` [Example 197, 1-methyl-7-(2-methyl-6-(4H-1,2,4-triazol-3-yl)pyridin-3-yl)-3,4-dihydropyrazino[2,3-b]pyrazin-2(1H)-one], the IC50 fell in the range of 0.005 to 250 nM.

As for `CO[C@H]1CC[C@H](N2C(=O)CNc3ncc(-c4ccc(C(C)(C)O)[n+]([O-])c4)nc32)CC1` [Example 198, 2-(2-hydroxypropan-2-yl)-5-(8-(trans-4-methoxycyclohexyl)-7-oxo-5,6,7,8-tetrahydropyrazino[2,3-b]pyrazin-2-yl)pyridine 1-oxide], the IC50 lay in the range of 1000 to 10000 nM.

Take `Cc1cc(C(N)=O)ncc1-c1cnc2c(n1)N(CC1CCOCC1)C(=O)CN2` [Example 199, 4-methyl-5-(7-oxo-8-((tetrahydro-2H-pyran-4-yl)methyl)-5,6,7,8-tetrahydropyrazino[2,3-b]pyrazin-2-yl)picolinamide]: the IC50 lay in the range of 1000 to 10000 nM. `CO[C@H]1CC[C@@H](CN2C(=O)CNc3ncc(-c4cnc(C(N)=O)cc4C)nc32)CC1` [Example 200, 5-(8-((cis-4-methoxycyclohexyl)methyl)-7-oxo-5,6,7,8-tetrahydropyrazino[2,3-b]pyrazin-2-yl)-4-methylpicolinamide]: the IC50 was in the range of 1000 to 10000 nM. Regarding `O=C1CNc2ncc(-c3cn[nH]c3)nc2N1CCC1CCOCC1` [Example 201, 7-(1H-pyrazol-4-yl)-1-(2-(tetrahydro-2H-pyran-4-yl)ethyl)-3,4-dihydropyrazino[2,3-b]pyrazin-2(1H)-one], the IC50 lay within 1000 to 10000 nM. For the compound `CO[C@H]1CC[C@H](N2C(=O)CNc3ncc(-c4cnc(-c5nc[nH]n5)cc4C)nc32)CC1` [Example 202, 1-(trans-4-methoxycyclohexyl)-7-(4-methyl-6-(1H-1,2,4-triazol-3-yl)pyridin-3-yl)-3,4-dihydropyrazino[2,3-b]pyrazin-2(1H)-one], the IC50 lay in the range of 0.005 to 250 nM. Consider `Cc1nc(-c2nnc[nH]2)ccc1-c1cnc2c(n1)N(Cc1cccc(C#N)c1)C(=O)CN2` [Example 203, 3-((7-(2-methyl-6-(4H-1,2,4-triazol-3-yl)pyridin-3-yl)-2-oxo-3,4-dihydropyrazino[2,3-b]pyrazin-1(2H)-yl)methyl)benzonitrile], for which the IC50 is 0.005 to 250 nM. As for `CO[C@H]1CC[C@H](CN2C(=O)CNc3ncc(-c4cnc(-c5nc[nH]n5)cc4C)nc32)CC1` [Example 204, 1-((trans-4-methoxycyclohexyl)methyl)-7-(4-methyl-6-(1H-1,2,4-triazol-3-yl)pyridin-3-yl)-3,4-dihydropyrazino[2,3-b]pyrazin-2(1H)-one], the IC50 is 0.005 to 250 nM. Turning to `NC(=O)c1cccc(-c2cnc3c(n2)N(CCC2CCOCC2)C(=O)CN3)c1` [Example 205, 3-(7-oxo-8-(2-(tetrahydro-2H-pyran-4-yl)ethyl)-5,6,7,8-tetrahydropyrazino[2,3-b]pyrazin-2-yl)benzamide], the IC50 was 1000 to 10000 nM. The result for `CO[C@H]1CC[C@H](CN2C(=O)CNc3ncc(-c4cnc(C(N)=O)cc4C)nc32)CC1` [Example 206, 5-(8-((trans-4-methoxycyclohexyl)methyl)-7-oxo-5,6,7,8-tetrahydropyrazino[2,3-b]pyrazin-2-yl)-4-methylpicolinamide] reads 1000 to 10000 nM; that for `CC(C)(O)c1ccc(-c2cnc3c(n2)N(Cc2cccc(C#N)c2)C(=O)CN3)cn1` [Example 207, 3-((7-(6-(2-hydroxypropan-2-yl)pyridin-3-yl)-2-oxo-3,4-dihydropyrazino[2,3-b]pyrazin-1(2H)-yl)methyl)benzonitrile], 0.005 to 250 nM. Turning to `CO[C@@H]1CC[C@@H](N2C(=O)CNc3ncc(-c4ccc(C(C)(C)O)nc4)nc32)C1` [Example 208, 7-(6-(2-hydroxypropan-2-yl)pyridin-3-yl)-1-((1R,3R)-3-methoxycyclopentyl)-3,4-dihydropyrazino[2,3-b]pyrazin-2(1H)-one], the IC50 lay within 0.005 to 250 nM. For `CO[C@@H]1CC[C@H](N2C(=O)CNc3ncc(-c4ccc(C(C)(C)O)nc4)nc32)C1` [Example 209, 7-(6-(2-hydroxypropan-2-yl)pyridin-3-yl)-1-((1S,3R)-3-methoxycyclopentyl)-3,4-dihydropyrazino[2,3-b]pyrazin-2(1H)-one] the value was 0.005 to 250 nM. The result for `CO[C@H]1CC[C@H](N2C(=O)CNc3ncc(-c4ccc(C(C)(C)O)nc4)nc32)C1` [Example 210, 7-(6-(2-hydroxypropan-2-yl)pyridin-3-yl)-1-((1S,3S)-3-methoxycyclopentyl)-3,4-dihydropyrazino[2,3-b]pyrazin-2(1H)-one] reads 0.005 to 250 nM; that for `CO[C@H]1CC[C@@H](N2C(=O)CNc3ncc(-c4ccc(C(C)(C)O)nc4)nc32)C1` [Example 211, 7-(6-(2-hydroxypropan-2-yl)pyridin-3-yl)-1-((1R,3S)-3-methoxycyclopentyl)-3,4-dihydropyrazino[2,3-b]pyrazin-2(1H)-one], 0.005 to 250 nM; that for `O=C1CNc2ncc(-c3ccc4cn[nH]c4c3)nc2N1CCC1CCOCC1` [Example 212, 7-(1H-indazol-6-yl)-1-(2-(tetrahydro-2H-pyran-4-yl)ethyl)-3,4-dihydropyrazino[2,3-b]pyrazin-2(1H)-one], 0.005 to 250 nM. The result for `CC(C)(O)c1ccc(-c2cnc3c(n2)N(CCN2CCOCC2)C(=O)CN3)cn1` [Example 216, 7-(6-(2-hydroxypropan-2-yl)pyridin-3-yl)-1-(2-morpholinoethyl)-3,4-dihydropyrazino[2,3-b]pyrazin-2(1H)-one] reads 0.005 to 250 nM; that for `O=C1CNc2ncc(-c3cnc4nc[nH]c4c3)nc2N1CCC1CCOCC1` [Example 218, 7-(1H-imidazo[4,5-b]pyridin-6-yl)-1-(2-(tetrahydro-2H-pyran-4-yl)ethyl)-3,4-dihydropyrazino[2,3-b]pyrazin-2(1H)-one], 1000 to 10000 nM. For the compound `NC(=O)c1ccc(-c2cnc3c(n2)N(CCC2CCOCC2)C(=O)CN3)cc1` [Example 222, 4-(7-oxo-8-(2-(tetrahydro-2H-pyran-4-yl)ethyl)-5,6,7,8-tetrahydropyrazino[2,3-b]pyrazin-2-yl)benzamide], the IC50 lay in the range of 0.005 to 250 nM. On to `O=C1CNc2ncc(-c3ccc4[nH]ncc4c3)nc2N1CCC1CCOCC1` [Example 223, 7-(1H-indazol-5-yl)-1-(2-(tetrahydro-2H-pyran-4-yl)ethyl)-3,4-dihydropyrazino[2,3-b]pyrazin-2(1H)-one], for which the IC50 is 500 to 1000 nM. For the compound `O=C1CNc2ncc(-c3cnc4[nH]ccc4c3)nc2N1CCC1CCOCC1` [Example 224, 7-(1H-pyrrolo[2,3-b]pyridin-5-yl)-1-(2-(tetrahydro-2H-pyran-4-yl)ethyl)-3,4-dihydropyrazino[2,3-b]pyrazin-2(1H)-one], the IC50 was in the range of 0.005 to 250 nM. For `CO[C@@H]1CC[C@H](N2C(=O)CNc3ncc(-c4ccc(-c5nnc[nH]5)nc4C)nc32)C1` [Example 226, 1-((1S,3R)-3-methoxycyclopentyl)-7-(2-methyl-6-(4H-1,2,4-triazol-3-yl)pyridin-3-yl)-3,4-dihydropyrazino[2,3-b]pyrazin-2(1H)-one] the value was 0.005 to 250 nM. `CO[C@@H]1CC[C@@H](N2C(=O)CNc3ncc(-c4ccc(-c5nnc[nH]5)nc4C)nc32)C1` [Example 227, 1-((1R,3R)-3-methoxycyclopentyl)-7-(2-methyl-6-(4H-1,2,4-triazol-3-yl)pyridin-3-yl)-3,4-dihydropyrazino[2,3-b]pyrazin-2(1H)-one]: the IC50 fell in the range of 0.005 to 250 nM. Regarding `CO[C@H]1CC[C@@H](N2C(=O)CNc3ncc(-c4ccc(-c5nnc[nH]5)nc4C)nc32)C1` [Example 228, 1-((1R,3S)-3-methoxycyclopentyl)-7-(2-methyl-6-(4H-1,2,4-triazol-3-yl)pyridin-3-yl)-3,4-dihydropyrazino[2,3-b]pyrazin-2(1H)-one], the IC50 was 0.005 to 250 nM. As for `CO[C@H]1CC[C@H](N2C(=O)CNc3ncc(-c4ccc(-c5nnc[nH]5)nc4C)nc32)C1` [Example 229, 1-((1S,3S)-3-methoxycyclopentyl)-7-(2-methyl-6-(4H-1,2,4-triazol-3-yl)pyridin-3-yl)-3,4-dihydropyrazino[2,3-b]pyrazin-2(1H)-one], the IC50 fell in the range of 0.005 to 250 nM. Take `O=C1CNc2ncc(-c3ccc4cc[nH]c4c3)nc2N1CCC1CCOCC1` [Example 232, 7-(1H-indol-6-yl)-1-(2-(tetrahydro-2H-pyran-4-yl)ethyl)-3,4-dihydropyrazino[2,3-b]pyrazin-2(1H)-one]: the IC50 is 250 to 500 nM. With `CO[C@H]1CC[C@H](N2C(=O)CNc3ncc(-c4ccc(C(C)(C)O)cc4)nc32)CC1` [Example 233, 7-(4-(2-hydroxypropan-2-yl)phenyl)-1-(trans-4-methoxycyclohexyl)-3,4-dihydropyrazino[2,3-b]pyrazin-2(1H)-one], the IC50 is 0.005 to 250 nM. With `CNc1nc2c(C)cc(-c3cnc4c(n3)N(CCOC)C(=O)CN4)cc2[nH]1` [Example 237, 1-(2-methoxyethyl)-7-(4-methyl-2-(methylamino)-1H-benzo[d]imidazol-6-yl)-3,4-dihydropyrazino[2,3-b]pyrazin-2(1H)-one], the IC50 lay within 0.005 to 250 nM. On to `Cc1cc(-c2cnc3c(n2)N(CC2CCOCC2)C(=O)CN3)cc2[nH]c(=O)[nH]c12` [Example 238, 7-(7-methyl-2-oxo-2,3-dihydro-1H-benzo[d]imidazol-5-yl)-1-((tetrahydro-2H-pyran-4-yl)methyl)-3,4-dihydropyrazino[2,3-b]pyrazin-2(1H)-one], for which the IC50 lay within 500 to 1000 nM. With `Cc1cc(-c2nnc[nH]2)ccc1-c1cnc2c(n1)NC(=O)CN2` [Example 239, 7-(2-methyl-4-(4H-1,2,4-triazol-3-yl)phenyl)-3,4-dihydropyrazino[2,3-b]pyrazin-2(1H)-one], the IC50 fell in the range of 0.005 to 250 nM. In the case of `COCCN1C(=O)CNc2ncc(-c3cnc(-c4nc[nH]n4)cc3C)nc21` [Example 240, 1-(2-methoxyethyl)-7-(4-methyl-6-(1H-1,2,4-triazol-3-yl)pyridin-3-yl)-3,4-dihydropyrazino[2,3-b]pyrazin-2(1H)-one], the IC50 was 0.005 to 250 nM. `Cc1cc(-c2nnc[nH]2)ccc1-c1cnc2c(n1)N(Cc1ccccc1)C(=O)CN2` [Example 241, 1-benzyl-7-(2-methyl-4-(4H-1,2,4-triazol-3-yl)phenyl)-3,4-dihydropyrazino[2,3-b]pyrazin-2(1H)-one]: the IC50 is 0.005 to 250 nM.

These data come from patent US11292796B2 (SIGNAL PHARMACEUTICALS, LLC, priority 2008, dated 2022).
